Source: patent publication US20060069132A1, “Azolecarboxamide herbicides” (priority 2004, published 2006)

Columns and labels:
large crabgrass [1] = assay: Test A pre-/postemergence herbicide test; format: in vivo, Digitaria sanguinalis
How it was run: (§1)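 Sandy loam soil given preemergence directed spray; plants at 2 to 10 cm, one- to two-leaf stage, sprayed to runoff postemergence, compounds in non-phytotoxic solvent with surfactant. Injury rated visually versus untreated controls after about ten greenhouse days, 0 (no effect) to 100 (complete control); dash means not tested.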

[2] = system: small flower umbrella sedge; assay: Test B flooded paddy test; format: in vivo, Cyperus difformis; settings: 1000 g ai/ha, visual rating, scale 0 to 100 (0 no effect, 100 complete control), 13 to 15 days
How it was run: (§2)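 Paddy species grown to the 2-leaf stage under flooding; blackgrass sprayed postemergence at 2–18 cm (1- to 4-leaf stage). Plants kept in a greenhouse for 13 to 15 days, then visually rated against controls on 0 (no effect) to 100 (complete control).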

cocklebur = assay: Test B pre-/postemergence herbicide test; format: in vivo, Xanthium strumarium; settings: for Plant response rating, Cocklebur: visual rating after 13 to 15 days
How it was run: (§3)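 Test chemicals in a non-phytotoxic solvent mixture with surfactant were applied preemergence to seeded species and postemergence to plants 2-18 cm tall (1- to 4-leaf stage); rice and barnyardgrass were also tested in a flooded paddy at the 2-leaf stage. Visual rating versus controls after 13-15 days in greenhouse, scale 0 (no effect) to 100 (complete control).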

large crabgrass [3] = assay: Test B pre-/postemergence herbicide test; format: in vivo, Digitaria sanguinalis; settings: for Plant response rating, Crabgrass, Large: visual rating after 13 to 15 days
How it was run: (§4)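 Evaluation is visual, comparing treated with control plants on a scale where 0 means no effect and 100 means full control. Treatments were preemergence, or postemergence on seedlings 2–18 cm tall, and held 13–15 days in the greenhouse.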

wild oat = assay: Test B postemergence herbicide test; format: in vivo, Avena fatua; settings: Postemergence, scale 0 (no effect) to 100 (complete control); for Oat, Wild plant response rating: 125 g ai/ha; for Plant response rating, Oat, Wild: 500 g ai/ha, visual rating after 13 to 15 days
How it was run: (§5)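 Each value is a visual 0–100 response rating taken against controls 13 to 15 days after treatment in the greenhouse. Plants received formulated chemical postemergence at the 1- to 4-leaf stage or, in flooded paddy, at the 2-leaf stage.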

barnyardgrass [4] = assay: Test B flooded paddy test; format: in vivo, Echinochloa crus-galli; settings: 1000 g ai/ha, visual rating, scale 0 to 100 (0 no effect, 100 complete control), 13 to 15 days
How it was run: as §2

ducksalad = assay: Test B flooded paddy test; format: in vivo, Heteranthera limosa; settings: 1000 g ai/ha, visual rating, scale 0 to 100 (0 no effect, 100 complete control), 13 to 15 days
How it was run: as §2

lambsquarters = assay: Test B pre-/postemergence herbicide test; format: in vivo, Chenopodium album
How it was run: as §4

pigweed = assay: Test B pre-/postemergence herbicide test; format: in vivo, Amaranthus retroflexus; settings: for Pigweed plant response rating: Preemergence, scale 0 to 100
How it was run: as §4

giant foxtail [5] = assay: Test A pre-/postemergence herbicide test; format: in vivo, Setaria faberi
How it was run: as §1

redroot pigweed = assay: Test A pre-/postemergence herbicide test; format: in vivo, Amaranthus retroflexus
How it was run: as §1

morningglory [6] = assay: Test B pre-/postemergence herbicide test; format: in vivo, Ipomoea coccinea
How it was run: as §3

blackgrass = assay: Test B postemergence herbicide test; format: in vivo, Alopecurus myosuroides; settings: Postemergence, scale 0 (no effect) to 100 (complete control); for Blackgrass plant response rating: 125 g ai/ha; for Plant response rating, Blackgrass: 500 g ai/ha, visual rating after 13 to 15 days
How it was run: as §2

Surinam grass = assay: Test B pre-/postemergence herbicide test; format: in vivo, Urochloa decumbens; settings: for Surinam Grass plant response rating: Preemergence, scale 0 to 100
How it was run: as §4

velvetleaf [7] = assay: Test B pre-/postemergence herbicide test; format: in vivo, Abutilon theophrasti; settings: for Velvetleaf plant response rating: Preemergence, scale 0 to 100
How it was run: as §4

barnyardgrass [8] = assay: Test A pre-/postemergence herbicide test; format: in vivo, Echinochloa crus-galli
How it was run: as §1

corn = assay: Test B pre-/postemergence herbicide test; format: in vivo, Zea mays
How it was run: as §4

morningglory [9] = assay: Test A pre-/postemergence herbicide test; format: in vivo, Ipomoea spp.
How it was run: as §1

rice = assay: Test B flooded paddy test; format: in vivo, Oryza sativa; settings: 1000 g ai/ha, visual rating, scale 0 to 100 (0 no effect, 100 complete control), 13 to 15 days
How it was run: as §5

wheat = assay: Test B postemergence herbicide test; format: in vivo, Triticum aestivum; settings: Postemergence, 500 g ai/ha; visual rating after 13 to 15 days, scale 0 (no effect) to 100 (complete control)
How it was run: as §5

barnyardgrass [10] = assay: Test B pre-/postemergence herbicide test; format: in vivo, Echinochloa crus-galli; settings: for Plant response rating, Barnyardgrass: visual rating after 13 to 15 days
How it was run: as §3

giant foxtail [11] = assay: Test B pre-/postemergence herbicide test; format: in vivo, Setaria faberi
How it was run: as §4

velvetleaf [12] = assay: Test A pre-/postemergence herbicide test; format: in vivo, Abutilon theophrasti
How it was run: as §1

[13] = Postemergence, 250 g ai/ha, 0 to 100 scale, 0 no effect, 100 complete control
[14] = Postemergence, 1000 g ai/ha, 0 to 100 scale, 0 no effect, 100 complete control
[15] = Preemergence, 1000 g ai/ha, visual rating, 0 to 100 scale (0 no effect, 100 complete control)
[16] = preemergence, 250 g ai/ha, visual injury, 0 to 100 scale (0 no effect, 100 complete control)
[17] = Postemergence, 125 g ai/ha, scale 0 (no effect) to 100 (complete control)
[18] = Postemergence, 500 g ai/ha, scale 0 (no effect) to 100 (complete control)
[19] = Preemergence, 500 g ai/ha, scale 0 to 100
[20] = Postemergence, 500 g ai/ha, visual rating after 13 to 15 days, scale 0 (no effect) to 100 (complete control)
[21] = preemergence, 125 g ai/ha, 0 to 100 scale, 0 is no effect, 100 is complete control
[22] = Postemergence, 500 g ai/ha, 0 to 100 scale, 0 no effect, 100 complete control
[23] = Postemergence, 2000 g ai/ha, 0 to 100 scale, 0 no effect, 100 complete control
[24] = Preemergence, 500 g ai/ha, visual rating, 0 to 100 scale (0 no effect, 100 complete control)
[25] = Preemergence, 2000 g ai/ha, 0 to 100 scale, 0 no effect, 100 complete control

CCN(CC)C(=O)c1cccc(NC(=O)c2cc(C(C)(C)C)nn2CC(F)(F)F)c1 [Compound 32]
Crabgrass, Large plant response rating (large crabgrass [1]; [13]): 0
Plant response rating, Crabgrass, Large (large crabgrass [1]; [14]): 0
Crabgrass, Large plant response rating (large crabgrass [1]; [15]): 0
Crabgrass, Large plant response rating (large crabgrass [1]; [16]): 0
Sedge, Umbrella plant response rating [2]: 20
Cocklebur plant response rating (cocklebur; [17]): 10
Plant response rating, Cocklebur (cocklebur; [18]): 20
Cocklebur plant response rating (cocklebur; [19]): 0
Crabgrass, Large plant response rating (large crabgrass [3]; [17]): 0
Plant response rating, Crabgrass, Large (large crabgrass [3]; [18]): 10
Crabgrass, Large plant response rating (large crabgrass [3]; [19]): 60
Oat, Wild plant response rating (wild oat): 10
Plant response rating, Oat, Wild (wild oat): 20
Barnyardgrass plant response rating (barnyardgrass [4]): 0
Ducksalad plant response rating (ducksalad): 0
Lambsquarters plant response rating (lambsquarters; [17]): 70
Plant response rating, Lambsquarters (lambsquarters; [20]): 90
Lambsquarters plant response rating (lambsquarters; [19]): 100
Plant response rating, Lambsquarters (lambsquarters; [21]): 100
Plant response rating, Pigweed (pigweed; [20]): 50
Pigweed plant response rating (pigweed; 500 g ai/ha): 70
Plant response rating, Pigweed (pigweed; [21]): 0
Foxtail, Giant plant response rating (giant foxtail [5]; [13]): 0
Plant response rating, Foxtail, Giant (giant foxtail [5]; [14]): 0
Foxtail, Giant plant response rating (giant foxtail [5]; [15]): 0
Foxtail, Giant plant response rating (giant foxtail [5]; [16]): 0
Pigweed plant response rating (redroot pigweed; [13]): 0
Plant response rating, Pigweed (redroot pigweed; [14]): 0
Pigweed plant response rating (redroot pigweed; [15]): 0
Pigweed plant response rating (redroot pigweed; [16]): 0
Morningglory plant response rating (morningglory [6]; [17]): 0
Plant response rating, Morningglory (morningglory [6]; [20]): 0
Morningglory plant response rating (morningglory [6]; [19]): 60
Plant response rating, Morningglory (morningglory [6]; [21]): 50
Blackgrass plant response rating (blackgrass): 0
Plant response rating, Blackgrass (blackgrass): 0
Plant response rating, Surinam Grass (Surinam grass; [20]): 10
Surinam Grass plant response rating (Surinam grass; 500 g ai/ha): 30
Plant response rating, Surinam Grass (Surinam grass; [21]): 0
Plant response rating, Velvetleaf (velvetleaf [7]; [20]): 30
Velvetleaf plant response rating (velvetleaf [7]; 500 g ai/ha): 70
Plant response rating, Velvetleaf (velvetleaf [7]; [21]): 0
Barnyardgrass plant response rating (barnyardgrass [8]; [13]): 0
Plant response rating, Barnyardgrass (barnyardgrass [8]; [14]): 0
Barnyardgrass plant response rating (barnyardgrass [8]; [15]): 0
Barnyardgrass plant response rating (barnyardgrass [8]; [16]): 0
Corn plant response rating (corn; [17]): 10
Plant response rating, Corn (corn; [20]): 10
Corn plant response rating (corn; [19]): 0
Morningglory plant response rating (morningglory [9]; [13]): 0
Plant response rating, Morningglory (morningglory [9]; [14]): 0
Morningglory plant response rating (morningglory [9]; [15]): 0
Morningglory plant response rating (morningglory [9]; [16]): 0
Rice plant response rating (rice): 0
Plant response rating, Wheat (wheat): 10
Barnyardgrass plant response rating (barnyardgrass [10]; [17]): 0
Plant response rating, Barnyardgrass (barnyardgrass [10]; [18]): 10
Barnyardgrass plant response rating (barnyardgrass [10]; [19]): 60
Foxtail, Giant plant response rating (giant foxtail [11]; [17]): 0
Plant response rating, Foxtail, Giant (giant foxtail [11]; [20]): 10
Foxtail, Giant plant response rating (giant foxtail [11]; [19]): 10
Plant response rating, Foxtail, Giant (giant foxtail [11]; [21]): 0
Velvetleaf plant response rating (velvetleaf [12]; [13]): 0
Plant response rating, Velvetleaf (velvetleaf [12]; [14]): 0
Velvetleaf plant response rating (velvetleaf [12]; [15]): 0
Velvetleaf plant response rating (velvetleaf [12]; [16]): 0

CCCCn1nc(C(C)(C)C)cc1C(=O)Nc1cccc(C(=O)N(CC)CC)c1 [Compound 40]
Plant response rating, Crabgrass, Large (large crabgrass [1]; [22]): 15
Plant response rating, Crabgrass, Large (large crabgrass [1]; [23]): 0
Crabgrass, Large plant response rating (large crabgrass [1]; [24]): 5
Crabgrass, Large plant response rating (large crabgrass [1]; [25]): 15
Sedge, Umbrella plant response rating [2]: 30
Cocklebur plant response rating (cocklebur; [17]): 10
Plant response rating, Cocklebur (cocklebur; [18]): 50
Cocklebur plant response rating (cocklebur; [19]): 0
Crabgrass, Large plant response rating (large crabgrass [3]; [17]): 10
Plant response rating, Crabgrass, Large (large crabgrass [3]; [18]): 20
Crabgrass, Large plant response rating (large crabgrass [3]; [19]): 70
Oat, Wild plant response rating (wild oat): 0
Plant response rating, Oat, Wild (wild oat): 10
Barnyardgrass plant response rating (barnyardgrass [4]): 0
Ducksalad plant response rating (ducksalad): 0
Lambsquarters plant response rating (lambsquarters; [17]): 40
Plant response rating, Lambsquarters (lambsquarters; [20]): 70
Lambsquarters plant response rating (lambsquarters; [19]): 80
Plant response rating, Lambsquarters (lambsquarters; [21]): 40
Plant response rating, Pigweed (pigweed; [20]): 60
Pigweed plant response rating (pigweed; 500 g ai/ha): 60
Plant response rating, Pigweed (pigweed; [21]): 30
Plant response rating, Foxtail, Giant (giant foxtail [5]; [22]): 0
Plant response rating, Foxtail, Giant (giant foxtail [5]; [23]): 0
Foxtail, Giant plant response rating (giant foxtail [5]; [24]): 0
Foxtail, Giant plant response rating (giant foxtail [5]; [25]): 5
Plant response rating, Pigweed (redroot pigweed; [22]): 0
Plant response rating, Pigweed (redroot pigweed; [23]): 0
Pigweed plant response rating (redroot pigweed; [24]): 0
Pigweed plant response rating (redroot pigweed; [25]): 15
Morningglory plant response rating (morningglory [6]; [19]): 10
Blackgrass plant response rating (blackgrass): 10
Plant response rating, Blackgrass (blackgrass): 20
Plant response rating, Surinam Grass (Surinam grass; [20]): 20
Surinam Grass plant response rating (Surinam grass; 500 g ai/ha): 10
Plant response rating, Surinam Grass (Surinam grass; [21]): 0
Plant response rating, Velvetleaf (velvetleaf [7]; [20]): 20
Velvetleaf plant response rating (velvetleaf [7]; 500 g ai/ha): 10
Plant response rating, Velvetleaf (velvetleaf [7]; [21]): 0
Plant response rating, Barnyardgrass (barnyardgrass [8]; [22]): 0
Plant response rating, Barnyardgrass (barnyardgrass [8]; [23]): 0
Barnyardgrass plant response rating (barnyardgrass [8]; [24]): 0
Barnyardgrass plant response rating (barnyardgrass [8]; [25]): 15
Corn plant response rating (corn; [19]): 0
Plant response rating, Morningglory (morningglory [9]; [22]): 0
Plant response rating, Morningglory (morningglory [9]; [23]): 0
Morningglory plant response rating (morningglory [9]; [24]): 5
Morningglory plant response rating (morningglory [9]; [25]): 10
Rice plant response rating (rice): 0
Plant response rating, Wheat (wheat): 30
Barnyardgrass plant response rating (barnyardgrass [10]; [17]): 10
Plant response rating, Barnyardgrass (barnyardgrass [10]; [18]): 10
Barnyardgrass plant response rating (barnyardgrass [10]; [19]): 40
Foxtail, Giant plant response rating (giant foxtail [11]; [17]): 0
Plant response rating, Foxtail, Giant (giant foxtail [11]; [20]): 20
Foxtail, Giant plant response rating (giant foxtail [11]; [19]): 10
Plant response rating, Foxtail, Giant (giant foxtail [11]; [21]): 0
Plant response rating, Velvetleaf (velvetleaf [12]; [22]): 0
Plant response rating, Velvetleaf (velvetleaf [12]; [23]): 0
Velvetleaf plant response rating (velvetleaf [12]; [24]): 5
Velvetleaf plant response rating (velvetleaf [12]; [25]): 15
